# Results taken from paper PMC5402990 (PLoS Neglected Tropical Diseases, 2017).
# Structures can show the parent of a compound that is named as a salt. Where two headings read alike, the source gives them in different places.
# Assays:
# in vitro [1] = details: African green monkey
# MARV = assay: organism not typed; type: cell-based, Marburg virus
# EBOV GP VLPs = type: cell-based, Ebola virus
# cathepsin B and L = type: cell-based, Grivet monkey; details: pH 5
# [2] = mouse, in vivo
# [3] = tested on: endosome acidification in BSC-1 cells; type: cell-based, Grivet monkey
# in vivo = details: mouse, ip, 10 mg/kg
# Huh 7 cells = details: human
# [4] = tested on: cholesterol levels in endolysosomes of BSC-1 cells; type: cell-based, Grivet monkey
# in vitro [5] = details: human
# [6] = tested on: EBOV VLP trafficking in BSC-1 cells; type: cell-based, Grivet monkey
# EBOV/Mak = assay: microbe, parasite or virus in culture; type: cell-based, Ebola virus; details: for IC50: Zaire ebolavirus
# [7] = human, in vivo; cited from earlier work
# EBOV trVLPs = type: cell-based, Ebola virus
# in vitro [8] = details: human; remark: listed apart in the source
structure (smiles),measurement,setting,value
"Cc1cccc(/C=N/Nc2cc(N3CCOCC3)nc(OCCc3ccccn3)n2)c1 [Apilimod, apilimod]",CC50,in vitro [1],> 2000 nM
same,IC50,MARV,10 nM
same,fold higher activity than the positive control,MARV,38- to 1160 fold
same,IC50,MARV; 48 h,10 ± 4 nM
same,IC50,"MARV; Huh-7, 48 h",140 ± 50 nM
same,IC50,MARV; Vero C1008,15 to 25 nM
same,IC50,"MARV; Vero C1008, 48 h",15 ± 3 nM
same,EBOV VLP entry,EBOV GP VLPs,blocks EBOV VLP entry into BSC-1 cells with the same approximate dose-dependency as its effects in HEK 293T/17 cells
same,EBOV particle (VLP) entry,EBOV GP VLPs,blocked
same,effect on the activity of cathepsin B and L,cathepsin B and L,no apparent direct effect
same,Cmax relative to IC50 in hMDMs,[2],~ 250 times
same,effect on endosome acidification,[3],no detectable effect on endosome acidification
same,Cmax,in vivo,2530 nM
same,CC50,Huh 7 cells,500 ± 100 nM
same,cholesterol levels in endolysosomes,[4],did not cause a detectable increase
same,CC50,in vitro [5],> 2000 nM
same,EBOV VLP trafficking to NPC1+ endolysosomes (Manders colocalization),[6],blocked EBOV VLP trafficking to NPC1^+ endolysosomes to a similar extent as nocodazole
same,VLP colocalization with EEA1+ endosomes,[6],caused EBOV VLPs to accumulate in EEA1^+ endosomes
same,VLP colocalization with NPC1 over time course,[6],at no point during this time course were VLPs seen to associate with NPC1^+ endolysosomes
same,"fold higher activity than the positive control, toremifene citrate",EBOV/Mak,6- to 247 fold
same,fold less potent in Huh 7 cells,EBOV/Mak,~ 10 fold
same,IC50,EBOV/Mak,10 nM
same,IC50,EBOV/Mak; 48 h,9 ± 1 nM
same,IC50,EBOV/Mak; Huh-7,140 nM
same,IC50,"EBOV/Mak; Huh-7, 48 h",136 ± 40 nM
same,IC50,EBOV/Mak; Vero C1008,15 to 25 nM
same,IC50,"EBOV/Mak; Vero C1008, 48 h",25 ± 10 nM
same,tolerability in humans,[7],well-tolerated
same,EBOV particle replication (trVLP infection),EBOV trVLPs,blocked
same,CC50,in vitro [8],480 ± 80 nM
CN(C)CCOc1ccc(/C(=C(/CCCl)c2ccccc2)c2ccccc2)cc1 [Toremifene citrate],IC50,MARV,11600 nM
same,IC50,MARV; Huh-7,5380 nM
same,IC50,MARV; Vero C1008,2360 nM
same,IC50,EBOV/Mak,2470 nM
same,IC50,EBOV/Mak; Huh-7,730 nM
same,IC50,EBOV/Mak; Vero C1008,1670 nM
CO/C1=C\C(C)=C\[C@@H](C)[C@@H](O)[C@@H](C)C/C(C)=C/C=C/[C@H](OC)[C@@H]([C@@H](C)[C@@H](O)[C@H](C)[C@@]2(O)C[C@@H](O)[C@H](C)[C@@H](C(C)C)O2)OC1=O [Bafilomycin],effect on endosome acidification,[3],blocks endosome acidification
"COC(=O)Nc1nc2ccc(C(=O)c3cccs3)cc2[nH]1 [nocodazole, Nocodazole]",EBOV VLP trafficking to NPC1+ endolysosomes (Manders colocalization),[6],blocked EBOV VLP trafficking to NPC1^+ endolysosomes to a similar extent as nocodazole
